Source: patent publication US20200187499A1, “SUBSTITUTED BENZYL-4-AMINOPICOLINIC ESTERS AND PYRIMIDINO-4-CARBOXYLIC ESTERS, METHODS FOR THE PRODUCTION THEREOF, AND USE THEREOF AS HERBICIDES AND PLANT GROWTH REGULATORS” (Bayer CropScience Aktiengesellschaft, priority 2017, published 2020)

Tests used:
Type in all cases: in vivo
[1] = system: SETVI; assay: Post-emergence herbicidal action; conditions: 320 g/ha, assessed after about 3 weeks
Protocol: (§1) Seeds of monocotyledonous and dicotyledonous weed and crop plants are laid out in sandy loam soil in wood-fiber pots, covered with soil and cultivated in a greenhouse under good growth conditions. 2 to 3 weeks after sowing, the test plants are treated at the one-leaf stage. The compounds of the invention, formulated in the form of wettable powders (WP) or as emulsion concentrates (EC), are then sprayed onto the green parts of the plants in the form of an aqueous suspension or emulsion at a water application rate equating to 600 to 800 l/ha, with addition of 0.2% wetting agent. After the test plants have been left to stand in the greenhouse under optimal growth conditions for about 3 weeks, the action of the preparations is assessed visually in comparison to untreated controls (herbicidal action in percent (%): 100% activity=the plants have died, 0% activity=like control plants). […] At the same time, inventive compounds leave Gramineae crops such as barley, wheat, rye, millet/sorghum, corn or rice virtually undamaged when applied post-emergence, even at high active ingredient dosages. In addition, some substances are also harmless to dicotyledonous crops such as soya, cotton, oilseed rape, sugar beet or potatoes. Some of the compounds according to the invention have high selectivity and are therefore suitable for controlling unwanted vegetation in agricultural crops by the post-emergence method. The tables below illustrate, in an exemplary manner, the post-emergence herbicidal action of the compounds according to the invention, the herbicidal activity being stated in percent.

[2] = system: ABUTH; assay: Post-emergence herbicidal action; conditions: 320 g/ha, assessed after about 3 weeks
Protocol: as §1

[3] = system: AMARE; assay: Post-emergence herbicidal action; conditions: 320 g/ha, assessed after about 3 weeks
Protocol: as §1

[4] = system: STEME; assay: Post-emergence herbicidal action; conditions: 320 g/ha, assessed after about 3 weeks
Protocol: as §1

[5] = system: SETVI; assay: Pre-emergence herbicidal action; conditions: Table 3, pre-emergence (PE), 320 g/ha, scored after 3 weeks
Description: (§2) Seeds of monocotyledonous and dicotyledonous weed plants and crop plants are laid out in sandy loam soil in wood-fiber pots and covered with soil. The compounds of the invention, formulated in the form of wettable powders (WP) or as emulsion concentrates (EC), are then applied to the surface of the covering soil in the form of an aqueous suspension or emulsion at a water application rate equating to 600 to 800 I/ha, with addition of 0.2% wetting agent. After the treatment, the pots are placed in a greenhouse and kept under good growth conditions for the trial plants. The damage to the test plants is scored visually after a test period of 3 weeks by comparison with untreated controls (herbicidal activity in percent (%): 100% activity=the plants have died, 0% activity=like control plants).
(§3) At the same time, inventive compounds leave Gramineae crops such as barley, wheat, rye, millet/sorghum, corn or rice virtually undamaged when applied pre-emergence, even at high active ingredient dosages. In addition, some substances are also harmless to dicotyledonous crops such as soya, cotton, oilseed rape, sugar beet or potatoes. […] The tables below illustrate, in an exemplary manner, the pre-emergence herbicidal action of the compounds according to the invention, the herbicidal activity being stated in percent.

[6] = system: ECHCG; assay: Pre-emergence herbicidal action; conditions: 320 g/ha, scored after 3 weeks
Description: as §2, §3

[7] = system: ALOMY; assay: Pre-emergence herbicidal action; conditions: Table 3, pre-emergence (PE), 320 g/ha, scored after 3 weeks
Description: as §2, §3

[8] = system: ABUTH; assay: Pre-emergence herbicidal action; conditions: Table 3, pre-emergence (PE), 320 g/ha, scored after 3 weeks
Description: as §2, §3

[9] = system: AMARE; assay: Pre-emergence herbicidal action; conditions: 320 g/ha, scored after 3 weeks
Description: as §2, §3

[10] = system: ECHCG; assay: Post-emergence herbicidal action; conditions: Table 5, post-emergence (PO), 320 g/ha, assessed after about 3 weeks
Protocol: as §1

[11] = system: VIOTR; assay: Post-emergence herbicidal action; conditions: Table 5, post-emergence (PO), 320 g/ha, assessed after about 3 weeks
Protocol: as §1

[12] = system: PHBPU; assay: Post-emergence herbicidal action; conditions: Table 5, post-emergence (PO), 320 g/ha, assessed after about 3 weeks
Protocol: as §1

[13] = system: POLCO; assay: Post-emergence herbicidal action; conditions: Table 5, post-emergence (PO), 320 g/ha, assessed after about 3 weeks
Protocol: as §1

| SMILES | Herbicidal action against SETVI ([1]; Table 6, post-emergence (PO)) [%] | Herbicidal action against ABUTH ([2]; Table 6, post-emergence (PO)) [%] | Herbicidal action against AMARE ([3]; Table 6, post-emergence (PO)) [%] | Herbicidal action against STEME ([4]; Table 6, post-emergence (PO)) [%] | Herbicidal action against SETVI [5] [%] | Herbicidal action against ECHCG ([6]; Table 3, pre-emergence (PE)) [%] | Herbicidal action against ALOMY [7] [%] | Herbicidal action against ABUTH [8] [%] | Herbicidal action against AMARE ([9]; Table 3, pre-emergence (PE)) [%] | Herbicidal action against SETVI ([1]; Table 5, post-emergence (PO)) [%] | Herbicidal action against ECHCG [10] [%] | Herbicidal action against VIOTR [11] [%] | Herbicidal action against ABUTH ([2]; Table 5, post-emergence (PO)) [%] | Herbicidal action against PHBPU [12] [%] | Herbicidal action against POLCO [13] [%] | Herbicidal action against AMARE ([3]; Table 5, post-emergence (PO)) [%] | Herbicidal action against STEME ([4]; Table 5, post-emergence (PO)) [%] | other results |
| --- | --- | --- | --- | --- | --- | --- | --- | --- | --- | --- | --- | --- | --- | --- | --- | --- | --- | --- |
| Nc1cc(-c2ccc3occc3c2)nc(C(=O)OCc2cccc(C(F)(F)F)c2)c1Cl [Example I-11] | 90 | 100 | 100 | 100 | 100 | 80 | 80 | 20 | 100 |  |  |  |  |  |  |  |  |  |
| Nc1c(F)c(-c2ccc3ccoc3c2)nc(C(=O)OCc2ccc(Cl)cc2)c1Cl [Example I-15] | 80 | 100 | 100 | 80 | 0 | 30 | 0 | 90 | 100 |  |  |  |  |  |  |  |  |  |
| Nc1cc(-c2ccc3ccsc3c2)nc(C(=O)OCc2c(F)c(F)c(F)c(F)c2F)c1Cl [Example I-25] | 100 | 90 | 100 | 100 | 80 | 70 | 60 | 0 | 100 |  |  |  |  |  |  |  |  |  |
| Nc1cc(-c2ccc3ccoc3c2)nc(C(=O)OCc2ccc(Cl)cc2)c1Cl [Example I-30] | 90 | 90 | 100 | 100 | 90 | 100 | 40 | 20 | 100 |  |  |  |  |  |  |  |  |  |
| Nc1cc(-c2ccc3occc3c2)nc(C(=O)OCc2ccc(Cl)cc2)c1Cl [Example I-31] | 90 | 100 | 100 | 100 | 50 | 30 | 20 | 30 | 90 |  |  |  |  |  |  |  |  |  |
| Nc1cc(-c2ccc3ccsc3c2)nc(C(=O)OCc2c(F)cc(F)cc2F)c1Cl [Example I-32] |  |  |  |  | 80 | 80 | 70 | 30 | 100 |  |  |  |  |  |  |  |  | Herbicidal action against ABUTH ([2]; Table 9, post-emergence (PO)): 90%; Herbicidal action against AMARE ([3]; Table 9, post-emergence (PO)): 100% |
| Nc1c(F)c(-c2ccc3occc3c2)nc(C(=O)OCc2ccc(F)cc2)c1Cl [Example I-34] |  |  |  |  |  |  |  |  |  | 100 | 80 | 0 | 90 | 40 | 80 | 100 | 90 | Herbicidal action against ECHCG ([6]; Table 4, pre-emergence (PE)): 50%; Herbicidal action against AMARE ([9]; Table 4, pre-emergence (PE)): 100% |
| COc1ccc(COC(=O)c2nc(-c3ccc4ccoc4c3)c(F)c(N)c2Cl)c(OC)c1 [Example I-35] |  |  |  |  |  |  |  |  |  | 100 | 90 | 60 | 80 | 20 | 80 | 100 | 90 | Herbicidal action against ECHCG ([6]; Table 4, pre-emergence (PE)): 40%; Herbicidal action against AMARE ([9]; Table 4, pre-emergence (PE)): 100% |
| Nc1cc(-c2ccc3sccc3c2)nc(C(=O)OCc2cccc(Cl)c2)c1Cl [Example I-40] |  |  |  |  |  |  |  |  |  | 90 | 90 | 60 | 90 | 80 | 40 | 100 | 80 | Herbicidal action against ECHCG ([6]; Table 4, pre-emergence (PE)): 10%; Herbicidal action against AMARE ([9]; Table 4, pre-emergence (PE)): 80% |
| Nc1c(F)c(-c2ccc3ccsc3c2)nc(C(=O)OCc2ccc(F)cc2F)c1Cl [Example I-42] | 20 | 80 | 90 | 80 | 20 | 40 | 30 | 0 | 100 |  |  |  |  |  |  |  |  |  |
| Nc1c(F)c(-c2ccc3occc3c2)nc(C(=O)OCc2ccc(Cl)cc2)c1Cl [Example I-47] | 70 | 90 | 90 | 80 | 50 | 70 | 60 | 20 | 100 |  |  |  |  |  |  |  |  |  |
| Nc1c(F)c(-c2ccc3occc3c2)nc(C(=O)OCc2c(F)cc(F)cc2F)c1Cl [Example I-52] | 20 | 80 | 90 | 80 | 40 | 30 | 80 | 20 | 80 |  |  |  |  |  |  |  |  |  |
| Nc1c(F)c(-c2ccc3sccc3c2)nc(C(=O)OCc2ccc(Cl)cc2)c1Cl [Example I-65] |  |  |  |  |  |  |  |  |  | 90 | 80 | 10 | 80 | 0 | 100 | 100 | 80 |  |
